20 molecules from PubChem BioAssay AID330 (DTP/NCI, 2004) can be followed below.

The test deals with P388 leukemia ip, CD2F1 mice, survival T/C. The test is described as follows: NCI In Vivo Anticancer Drug Screen. Data for tumor model P388 Leukemia (intraperitoneal) in CD2F1 (CDF1) mice. The note with it: endpoint: median survival time, higher = longer survival. The method in brief: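 Mice carrying the transplanted tumor received test compound or vehicle. Survival was recorded in each group, and the value is the treated-group measurement divided by that of the vehicle-treated control group.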

Setting [1] is: dose: 50.0 mg/kg/injection, schedule: Q01DX009 (ip), vehicle: saline with Tween-80.
The mark [2] stands for this setting: dose: 100.0 mg/kg/injection, schedule: Q01DX009 (ip), vehicle: saline with Tween-80.
The mark [3] stands for this setting: dose: 200.0 mg/kg/injection, schedule: Q01DX009 (ip), vehicle: saline with Tween-80.
Setting [4] is: dose: 50.0 mg/kg/injection, schedule: Q01DX005 (ip), vehicle: saline with Tween-80.
[5] abbreviates: dose: 100.0 mg/kg/injection, schedule: Q01DX005 (ip), vehicle: saline with Tween-80.
[6] abbreviates: dose: 200.0 mg/kg/injection, schedule: Q01DX005 (ip), vehicle: saline with Tween-80.
Where [7] appears, read: dose: 60.0 mg/kg/injection, schedule: Q01DX005 (ip), vehicle: saline with Tween-80.
Where [8] appears, read: dose: 120.0 mg/kg/injection, schedule: Q01DX005 (ip), vehicle: saline with Tween-80.
Where [9] appears, read: dose: 50.0 mg/kg/injection, schedule: Q01DX005 (ip), vehicle: Klucel (hydroxypropylcellulose) (HPC).
Setting [10] is: dose: 100.0 mg/kg/injection, schedule: Q01DX005 (ip), vehicle: Klucel (hydroxypropylcellulose) (HPC).
The mark [11] stands for this setting: dose: 200.0 mg/kg/injection, schedule: Q01DX005 (ip), vehicle: Klucel (hydroxypropylcellulose) (HPC).
The mark [12] stands for this setting: dose: 25.0 mg/kg/injection, schedule: Q01DX001 (ip), vehicle: Klucel (hydroxypropylcellulose) (HPC).
[13] abbreviates: dose: 50.0 mg/kg/injection, schedule: Q01DX001 (ip), vehicle: Klucel (hydroxypropylcellulose) (HPC).
Where [14] appears, read: dose: 100.0 mg/kg/injection, schedule: Q01DX001 (ip), vehicle: Klucel (hydroxypropylcellulose) (HPC).

Molecules are shown by their SMILES. Several values for one entry are separate records, joined by “and”; a condition that tells them apart may be missing. Equal entries are not always repeated. Toxic doses and inconclusive results are not listed. Square brackets hold non-standard residues; d marks the D form. Peptide text beside a SMILES is read from it. Hpg = N[CH](C(=O)O)c1ccc(O)cc1

`COc1ccc2c(Nc3ccc(NS(C)(=O)=O)cc3)c3ccccc3nc2c1`: the T/C by setting is: (dose: 0.07 mg/kg/injection, schedule: Q01DX009 (ip), vehicle: saline) 99 % of control; (dose: 0.1 mg/kg/injection, schedule: Q01DX009 (ip), vehicle: saline) 113 % of control; (dose: 0.15 mg/kg/injection, schedule: Q01DX009 (ip), vehicle: saline) 116 % of control; (dose: 0.23 mg/kg/injection, schedule: Q01DX009 (ip), vehicle: saline) 122 % of control; (dose: 1.1 mg/kg/injection, schedule: Q04DX003 (ip), vehicle: saline with Tween-80) 119 % of control; (dose: 2.5 mg/kg/injection, schedule: Q01DX009 (ip), vehicle: saline with Tween-80) 164 % of control. Also, the T/C is 194 % of control (dose: 5.0 mg/kg/injection, schedule: Q01DX009 (ip), vehicle: saline with Tween-80); 218 % of control (dose: 9.38 mg/kg/injection, schedule: Q01DX009 (ip), vehicle: saline with Tween-80); 270 % of control (dose: 10.0 mg/kg/injection, schedule: Q01DX009 (ip), vehicle: saline with Tween-80); 163 % of control (dose: 13.2 mg/kg/injection, schedule: Q04DX003 (ip), vehicle: saline with Tween-80); 97 % of control (dose: 18.7 mg/kg/injection, schedule: Q01DX009 (ip), vehicle: saline with Tween-80); 168 % of control (dose: 20.0 mg/kg/injection, schedule: Q04DX003 (ip), vehicle: saline with Tween-80). The T/C is 175 % of control (dose: 22.0 mg/kg/injection, schedule: Q04DX003 (ip), vehicle: saline with Tween-80); 200 % of control (dose: 30.0 mg/kg/injection, schedule: Q04DX003 (ip), vehicle: saline with Tween-80); 204 % of control (dose: 33.0 mg/kg/injection, schedule: Q04DX003 (ip), vehicle: saline with Tween-80); 216 % of control (dose: 50.0 mg/kg/injection, schedule: Q04DX003 (ip), vehicle: saline with Tween-80); 237 % of control (dose: 75.0 mg/kg/injection, schedule: Q04DX003 (ip), vehicle: saline with Tween-80).

Regarding `CC(C)CC(N)C(=O)NC(C(=O)O)c1ccc(O)cc1` (centres undefined) (H-Leu-[Hpg]-OH; configuration not given here), the T/C was 103 % of control under setting [1], 101 % of control under setting [2] and 102 % of control under setting [3].

Regarding `NC(CS)C(=O)O` (centres undefined) (tested in a mixture with another compound), the T/C is, setting by setting: (dose: 3.12 mg/kg/injection, schedule: Q01DX009 (ip), vehicle: suspension in saline) 90 % of control; (dose: 6.25 mg/kg/injection, schedule: Q01DX009 (ip), vehicle: suspension in saline) 107 % of control; (dose: 12.5 mg/kg/injection, schedule: Q01DX009 (ip), vehicle: suspension in saline) 110 % of control; (dose: 25.0 mg/kg/injection, schedule: Q01DX009 (ip), vehicle: suspension in saline) 110 % of control.

With `COc1ccc2c(c1)CC/C(=C\C1(Sc3ccccc3)CC1)C2O` (centres undefined), the T/C is 102 % of control under setting [4], 102 % of control under setting [5] and 98 % of control under setting [6].

Consider `COC1OC(COC(=O)c2ccccc2)C=C(OC(=O)c2ccccc2)C1=O` (centres undefined), for which the T/C runs as follows: (dose: 6.25 mg/kg/injection, schedule: Q01DX009 (ip), vehicle: saline with Tween-80) 103 % of control; (dose: 12.5 mg/kg/injection, schedule: Q01DX009 (ip), vehicle: saline with Tween-80) 105 % of control; (dose: 25.0 mg/kg/injection, schedule: Q01DX009 (ip), vehicle: saline with Tween-80) 103 % of control; under setting [1], 102 % of control and 113 % of control and 114 % of control; under setting [2], 105 % of control and 92 % of control; under setting [3], 114 % of control and 96 % of control.

With `COC(=O)c1cc(-c2ccc3ccccc3c2)[nH]c(=O)c1C#N`, the T/C is 100 % of control (dose: 30.0 mg/kg/injection, schedule: Q01DX005 (ip), vehicle: saline with Tween-80); 91 % of control and 92 % of control under setting [7]; 96 % of control under setting [8].

Consider `O=C(O)C1=C(C=C2CCCCC2)OCCC1`, for which the T/C was 88 % of control under setting [1], 92 % of control under setting [2] and 95 % of control under setting [3].

Regarding `CC(=O)NNC(=O)CCCCCCC(=O)NNC(C)=O`, the T/C is, setting by setting: under setting [9], 98 % of control; under setting [10], 98 % of control.

Consider `Fc1ccc2[nH]c3c(c2c1)-c1ncncc1CC3`, for which the T/C reads like this: under setting [9], 101 % of control; under setting [10], 100 % of control; under setting [11], 101 % of control.

With `O=c1cncc[nH]1`, the T/C (dose: 12.5 mg/kg/injection, schedule: Q01DX009 (ip), vehicle: saline) was 105 % of control; the T/C (dose: 25.0 mg/kg/injection, schedule: Q01DX009 (ip), vehicle: saline) is 108 % of control; the T/C (dose: 50.0 mg/kg/injection, schedule: Q01DX009 (ip), vehicle: saline) was 108 % of control; the T/C (dose: 100.0 mg/kg/injection, schedule: Q01DX009 (ip), vehicle: saline) is 109 % of control; the T/C (dose: 200.0 mg/kg/injection, schedule: Q01DX009 (ip), vehicle: saline) is 96 % of control.

In the case of `CCOC(=O)c1ccc(NC(=O)Nc2cccc(O)c2)cc1`, the T/C (dose: 60.0 mg/kg/injection, schedule: Q01DX005 (ip), vehicle: Klucel (hydroxypropylcellulose) (HPC)) is 107 % of control; the T/C (dose: 120.0 mg/kg/injection, schedule: Q01DX005 (ip), vehicle: Klucel (hydroxypropylcellulose) (HPC)) is 104 % of control; the T/C (dose: 240.0 mg/kg/injection, schedule: Q01DX005 (ip), vehicle: Klucel (hydroxypropylcellulose) (HPC)) was 91 % of control.

Take `CC(=O)NC(=S)Nc1ccccc1`: the T/C is, setting by setting: under setting [12], 100 % of control; under setting [13], 101 % of control; under setting [14], 103 % of control.

As to `Clc1nnc(C(Cl)Cl)o1`, the T/C reads like this: (dose: 50.0 mg/kg/injection, schedule: Q01DX009 (ip), vehicle: Klucel (hydroxypropylcellulose) (HPC)) 114 % of control; (dose: 100.0 mg/kg/injection, schedule: Q01DX009 (ip), vehicle: Klucel (hydroxypropylcellulose) (HPC)) 106 % of control; (dose: 200.0 mg/kg/injection, schedule: Q01DX009 (ip), vehicle: Klucel (hydroxypropylcellulose) (HPC)) 99 % of control.

`O=c1cc(-c2ccccc2)oc2c1CCCC2`: the T/C by setting is: under setting [9], 101 % of control; under setting [10], 97 % of control; under setting [11], 101 % of control.

Regarding `O=C1CSC(=S)N1c1ccc(C(F)(F)F)cc1`, the T/C was 93 % of control under setting [12], 99 % of control under setting [13] and 110 % of control under setting [14].

For `CCCCC1(CCCCCCCCC(=O)OCC)OCCO1`, the T/C by setting is: under setting [9], 96 % of control; under setting [10], 97 % of control; under setting [11], 97 % of control.

For `COCCOCOC(C)(C)CCCCl`, the T/C runs as follows: under setting [7], 106 % of control; under setting [8], 101 % of control; (dose: 240.0 mg/kg/injection, schedule: Q01DX005 (ip), vehicle: saline with Tween-80) 100 % of control.

As for `CC(=O)c1cc(CN(C)C)c(O)c(CN(C)C)c1`, the T/C by setting is: (dose: 50.0 mg/kg/injection, schedule: Q01DX005 (ip), vehicle: saline) 101 % of control; (dose: 100.0 mg/kg/injection, schedule: Q01DX005 (ip), vehicle: saline) 99 % of control; (dose: 200.0 mg/kg/injection, schedule: Q01DX005 (ip), vehicle: saline) 99 % of control.

Consider `CCCCNC(=O)C(C)OC(C)=O` (centres undefined), for which the T/C under setting [4] was 96 % of control, the T/C under setting [5] was 99 % of control and the T/C under setting [6] was 96 % of control.

For `[Br][Pd][Br].[NH-]C1CCCC2CCC[N-]C12` (centres undefined), the T/C by setting is: (dose: 12.5 mg/kg/injection, schedule: Q04DX002 (ip), vehicle: saline with Tween-80) 93 % of control; (dose: 25.0 mg/kg/injection, schedule: Q04DX002 (ip), vehicle: saline with Tween-80) 93 % of control; (dose: 50.0 mg/kg/injection, schedule: Q04DX002 (ip), vehicle: saline with Tween-80) 98 % of control.
